The values that follow come from PMC5979539 (International Journal of Molecular Sciences, 2018).

For data set [1], the target named is T1, PDC-109 (Bos taurus, UniProt P02784).
T1 construct: PDC-109, purified from bull seminal plasma, was kindly donated by J.J. Calvete; tissue gift of J.J. Calvete; host or cells: bull seminal plasma
T1 sequence (P02784 26-134): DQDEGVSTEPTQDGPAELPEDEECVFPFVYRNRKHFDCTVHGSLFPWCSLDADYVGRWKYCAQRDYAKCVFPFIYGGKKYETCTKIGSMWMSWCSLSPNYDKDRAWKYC
Put plainly: SPR binding profile and kinetics of PDC-109 on immobilized neo-glycoprobes. Also noted: species or system bovine. Particulars: immobilized glycoprobe, PDC-109 6.25 to 100 μM, HBS-P pH 7.4, 25 °C, 1:1 Langmuir model. The source says: While the lipid selectivity and kinetics of PDC-109 has been characterized in considerable detail, its interaction with carbohydrate epitopes remains largely uncharted, despite its potential role in sperm reservoir formation in the female genital tract. We have therefore performed SPR experiments with PDC-109 and the most relevant mammalian glycotopes, particularly those containing Fuc epitopes. Once SPR sensor chips were functionalized with the different synthetic glycoprobes and evaluated with specific lectins (Section 2.1.2) they were used to characterize both qualitatively and quantitatively the interaction of PDC-109. For kinetic analysis, several concentrations in the 6.25 to 100 μM range were analyzed and a 1:1 Langmuir binding model was chosen for sensorgram fitting.
Data dispersion was attributable to the unusual sensorgrams observed, reflecting a complex binding event, particularly in the association phase of PDC-109. […] In a conventional, straightforward binding event, the response—i.e., the signal rise over time, reflecting protein binding to the sensor surface—reaches a constant value once equilibrium is established, and remains so until the protein solution passed over the sensor chip is replaced with buffer, giving way to the spontaneous dissociation process and subsequent surface regeneration.
Binding experiments were performed at 25 °C and 30 μL/min flow rate. […] Sensor surface was regenerated with a 60 μL-injection of specific carbohydrate (10 mM lac, 500 mM αMe-Man, 0.5 M αMe-Fuc, and 10 mM Sia) followed by a 60 μL-injection of NaCl 1 M.
Background: Surface plasmon resonance follows binding to a sensor surface in real time, without labels.

Data set [2] relates to MAA. Put plainly: SPR binding and kinetics of MAA on immobilized sialic acid glycoprobes. Also noted: species or system Maackia amurensis.
Data set [3] deals with the molecule itself. Kind of data set: SPR; PDC-109 immobilised on a CM5 chip (1645 RU, 10 mM NaOAc pH 4); 50 µM PDC-109 passed over at 20 µL/min; regeneration with 1 M NaCl; two replicates.
Data set [4] has as its system PC membranes. Particulars: cited from earlier work. The source says:
Despite the above-discussed limitations, we were able to determine the SPR binding parameters of PDC-109. Affinity constants (Table 4) indicated weak to moderate binding for carbohydrates, at least if compared to the considerably higher affinity (KA~10^7 M^−1) found for PC membranes.

Take “Neu5Ac-α2,3-Gal-β1,4-GlcNAc-N[Me]-O-Aoa-GFKKG-amide [Neu5Ac-α2,3-Gal-β1,4-GlcNAc-Aoa(m)-GFKKG, neo-glycoprobe: Neu5Ac-α2,3-Gal-β1,4-GlcNAc oxime-ligated to the peptide module N[Me]-O-Aoa-GFKKG]”: in data set [1], the “derived association (KA) constant” value was 12400 M⁻¹. For the same molecule, the kd in data set [1] (3 to 6 repeat experiments) stood at 0.00477 s⁻¹. Further, the ka in data set [1] (30 μL/min, 3 to 6 repeat experiments, CV exceeding 50% in particular cases) is 99.9 M⁻¹ s⁻¹; in data set [2] (SPR, immobilized glycoprobe, MAA 250 nM to 1.9 μM, HBS-P pH 7.4 + CaCl2 5 mM, MnCl2 1 mM, 1:1 Langmuir model), 5.55 × 10^3 M^−^1 s^−^1. Moreover, in data set [2] (SPR binding responses on sialic acid glycoprobe chip), the “carbohydrate specificity of MAA in words” value is “recognized only”. For the same molecule, the KA in data set [2] (SPR, immobilized glycoprobe, MAA 250 nM to 1.9 μM, 1:1 Langmuir model) is reported as 9.12 × 10^5 M^−^1.

B1: PDC-109 (BSP-A1/-A2), main protein of bovine seminal plasma (natural protein, UniProt P02784 26-134, looked up)
chain: DQDEGVSTEPTQDGPAELPEDEECVFPFVYRNRKHFDCTVHGSLFPWCSLDADYVGRWKYCAQRDYAKCVFPFIYGGKKYETCTKIGSMWMSWCSLSPNYDKDRAWKYC
modifications: mixture of the glycosylated (O-linked trisaccharide, Neu5Ac-Hex-HexNAc) and non-glycosylated forms
notes: Native preparation; two closely spaced bands on SDS-PAGE (glycosylated and non-glycosylated forms); The same preparation was both immobilised and flowed over the chip; also called BSP-A2; source: purified from bull seminal plasma (donated by J.J. Calvete)
In the case of B1, the binding result in data set [3] is listed as “binds”.

B2: PDC-109: main protein of bovine seminal plasma, purified from bull seminal plasma; glycosylated and non-glycosylated forms (protein)
chain: DQDEGVSTEPTQDGPAELPEDEECVFPFVYRNRKHFDCTVHGSLFPWCSLDADYVGRWKYCAQRDYAKCVFPFIYGGKKYETCTKIGSMWMSWCSLSPNYDKDRAWKYC
modifications: mixture of the glycosylated (O-linked trisaccharide, Neu5Ac-Hex-HexNAc) and non-glycosylated forms
On to B2, for which the “KA for PC membranes” value in data set [4] is reported as ~ 10^7 M^−1.
